{"source": "patent US9107928B2", "about": "“Compositions and methods for treating ophthalmic disorders” (Dyax Corp., priority 2006, dated 2015)", "assay_type_in_all_cases": "in vivo", "key": {"[1]": {"test_system": "pig model of RVO (branch retinal vein occlusion)", "assay": "OCT-measured maximal retinal thickness in a pig model of RVO", "details": "21.2 μg/eye intra-vitreally immediately following RVO, 24 h after RVO", "method": "Maximal retina thickness was determined 24 h after RVO from Optical Coherence Tomography images. Values are mean±s.e.mean. Comparison of values was performed by a one-way ANOVA following by a student t-test.\n(§1) Mixed breed (Large White×Landrace×Pietrain) female pigs weighing 50 to 60 kg aged of 5 to 6 months were used. Following intramuscular injection of ketamine (10 mg/kg), azaperone (2 mg/kg) and atropine (0.02 mg/kg), anesthesia was induced by intravenous sodium thiopental (10 mg/kg). After tracheal intubation, anesthesia was maintained with isoflurane (1-2% in 100% O2) using a Hallowell ventilator (15 to 20 rpm; pressure at 20 cmH2O).\n(§2) Pupil was dilated by tropicamide. Conjunctival disinsertion was followed by a 0.9 mm sclerotomy, 3 mm from the limbus. The fundus was observed using a plano-concave lens and the axial light of the operating microscope (Microscope OPMI 6-C, Zeiss, Germany). Branch retinal vein occlusion (RVO) of the major temporal vein was performed by transvitreal cauterization using a 300 micron probe (GN 300, Aesculap, Tuttlingen, Germany). Completion of the occlusion was assessed by the complete arrest of blood flow upstream of the occlusion site. Both eyes were submitted to RVO.\nAnimals that were submitted to RVO were randomised to receive either the vehicle or the drug (10 to 14 pigs/group). […]"}, "[2]": {"test_system": "pig model of RVO (branch retinal vein occlusion)", "assay": "Evans Blue dye retinal concentration (extra-cellular retinal oedema) in a pig model of RVO", "details": "21.2 μg/eye intra-vitreally immediately following RVO, 24 h following RVO, p<0.01", "method": "The amount of Evans Blue dye concentration into the retinal tissue reflects plasma extravasation and the extent of oedema. Control values represent retina Evans Blue Dye content of 2 eyes that were left non-operated and non-treated whilst sham-operated eyes (n=4) were submitted to the surgical procedure but without occlusion (See Methods). Values are mean±s.e.mean. Comparison of values was performed by a one-way ANOVA following by a student t-test. **, p<0.01\nas §1\nPupil was dilated by tropicamide. […] Completion of the occlusion was assessed by the complete arrest of blood flow upstream of the occlusion site. […]\nAfter OCT measurement, each animal received Evans Blue dye at 45 mg/kg i.v. and venous blood samples (approximately 1 ml) were obtained at 15 minutes intervals for 2 hours. […] Evans Blue dye concentration in plasma samples and in retina tissue was measured by spectrophotometry at both 620 nm and 740 nm."}, "[3]": {"test_system": "pig model of RVO (branch retinal vein occlusion)", "assay": "Spontaneous retinal vein reperfusion 24 h after RVO in the pig", "details": "21.2 μg/eye intra-vitreally immediately following RVO", "method": "as §1, §2\nAnimals that were submitted to RVO were randomised to receive either the vehicle or the drug (10 to 14 pigs/group). Accordingly, 100 μl of SEQ ID No 23 in solution (dosage of 21.2 μg/eye) or of the corresponding vehicle (saline) was injected intra-vitreally, immediately following RVO."}}, "note": "Where no end group is shown, it is not given here."}
{"sequence": "EAMHSFCAFKADDGPCRAAHPRWFFNIFTRQCEEFIYGGCEGNQNRFESLEECKKMCTRD (cysteine pairing not given here) [SEQ ID No 23]", "values": [{"measurement": "Increase of maximal retinal thickness as measured by OCT", "setting": "[1]", "value": "did not modify the increase of maximal retinal thickness"}, {"measurement": "Reduction of Evans Blue dye retinal concentration (extent of extra-cellular oedema)", "setting": "[2]", "value": 47, "unit": "%"}, {"measurement": "% of reperfused retinal vein at 24 h (spontaneous reperfusion, treated eyes)", "setting": "[3]", "value": 30, "unit": "%"}, {"measurement": "Number of reperfused retinal vein at 24 h", "setting": "[3]; 13 pigs/26 eyes", "value": 8}]}
